For 57 molecules, Effect results are on record in ChEMBL document CHEMBL1122332, “Synthesis of esters of phosphonoformic acid and their antiherpes activity” (J Med Chem, 1983).

Each structure is given as a SMILES string. Calls of active or inactive are those of the source. The calls are words filed in the database; no cut-off is given here.

One test concerns Human alphaherpesvirus 1. Nature of the test: Evaluated for antiviral activity against cutaneous HSV-1 C42 infections in guinea pig; Not active. The class given is functional, organism-based.
For `CC(C)OP(=O)(OC(C)C)C(=O)Oc1ccc([N+](=O)[O-])cc1`, the Effect entry was “inactive”.
For the molecule `COP(=O)(OC)C(=O)Oc1ccc(Cl)c(Cl)c1`, the Effect entry was “inactive”.
Same read-out and setting: then `CCOC(=O)P(=O)(O)OCC`, with “inactive”; and `COP(=O)(O)C(=O)OCc1ccccc1`, with “inactive”.
The same measure, in the same setting: then `O=C(OCc1ccccc1)P(=O)(O)O`, with “inactive”; and `COP(=O)(OC)C(=O)OC1CCCCC1`, with “inactive”; and `CCOC(=O)c1ccc(OC(=O)P(=O)(OCC)OCC)cc1`, with “inactive”.
With `CCOP(=O)(Oc1ccc2c(c1)CCC2)C(=O)OC` (configuration not stated), the Effect result is “inactive”.
On the same count and under the same terms, the value for `COC(=O)P(=O)(OC(C)C)OC(C)C` was “inactive”; that for `CCOP(=O)(Oc1ccc(C(C)=O)cc1)C(=O)OC` (configuration not stated) was “inactive”.
Still for that read-out and setting: then `CCCCOC(=O)P(=O)(OC)OC`, with “inactive”; and `CCCCOP(=O)(O)C(=O)OC`, with “inactive”.
With `COC(=O)P(=O)(OC)Oc1ccc(C(C)=O)cc1` (configuration not stated), the Effect entry is “inactive”.
As for `CCOP(=O)(Oc1c(C)cccc1C)C(=O)OC` (configuration not stated), the Effect result was “inactive”.
Turning to `O=C(OCC1CCCC1)P(=O)(O)O`, the Effect entry is “inactive”.
The same measure, in the same setting: the value for `COP(=O)(OC)C(=O)OC(C)C` was “inactive”; that for `COC(=O)P(=O)(OC)OC12CC3CC(CC(C3)C1)C2` (configuration not stated) was “inactive”.
On to `COP(=O)(OC)C(=O)Oc1ccc([N+](=O)[O-])cc1`, for which the Effect result was “inactive”.
Still for that read-out and setting: the value for `CCOP(=O)(OCC)C(=O)Oc1ccc(Cl)cc1` was “inactive”; that for `CCOC(=O)c1ccc(OC(=O)P(=O)(OC)OC)cc1` was “inactive”.
Consider `COC(=O)P(=O)(O)Oc1ccc2c(c1)CCC2`, for which the Effect result was “inactive”.
Take `CCCCOC(=O)P(=O)(O)O`: the Effect entry is “inactive”.
On the same count and under the same terms, the value for `CCOC(=O)P(=O)(O)O` was “inactive”; that for `CCOP(=O)(OCC)C(=O)Oc1ccc(OC)cc1` was “inactive”.
Still for that read-out and setting: the value for `COP(=O)(OC)C(=O)Oc1ccc(C)cc1` was “inactive”; that for `CCCCOP(=O)(OCCCC)C(=O)OC` was “inactive”; that for `CC(C)OC(=O)P(=O)(O)O` was “inactive”.
For the molecule `COP(=O)(OC)C(=O)OCC1CCCC1`, the Effect result is “inactive”.
Still for that read-out and setting: then `COP(=O)(OC)C(=O)Oc1ccccc1`, with “inactive”; and `COC(=O)P(=O)(O)Oc1c(C)cccc1C`, with “inactive”.
As to `CCOC(=O)P(=O)(O)Oc1ccccc1`, the Effect result is “inactive”.
On the same count and under the same terms, the value for `O=C(OC1CCCCC1)P(=O)(O)O` was “inactive”; that for `COP(=O)(OC)C(=O)OCc1ccccc1` was “inactive”.

The next test deals with Human alphaherpesvirus 1. Put plainly: Evaluated for antiviral activity against cutaneous HSV-1 C42 infections in guinea pig; Active. The class given is functional, organism-based.
`Cc1cccc(C)c1OP(=O)(O)C(=O)O`: the Effect entry was “Active”.
Regarding `COc1ccc(OC(=O)P(=O)(O)O)cc1`, the Effect result is “Active”.
For `O=C(Oc1ccc(Cl)cc1)P(=O)(O)O`, the Effect result is “Active”.
The same measure, in the same setting: the value for `Cc1ccc(OC(=O)P(=O)(O)O)cc1` was “Active”; that for `O=C(O)P(=O)(O)OC12CC3CC(CC(C3)C1)C2` was “Active”; that for `CCOP(=O)(O)C(=O)Oc1ccc(Cl)cc1` was “Active”.
For the molecule `O=C(Oc1ccccc1)P(=O)(O)O`, the Effect result was “Active”.
`O=C(O)P(=O)(O)Oc1ccccc1`: the Effect entry is “Active”.
Same read-out and setting: then `Cc1ccc(OP(=O)(O)C(=O)O)cc1`, with “Active”; and `COP(=O)(O)C(=O)O`, with “Active”.
The same measure, in the same setting: then `CCOC(=O)c1ccc(OC(=O)P(=O)(O)O)cc1`, with “Active”; and `COP(=O)(O)C(=O)Oc1ccccc1`, with “Active”.
On the same count and under the same terms, the value for `COc1ccc(OP(=O)(O)C(=O)O)cc1` was “Active”; that for `Cc1ccc(OP(=O)(Oc2ccc(C)cc2)C(=O)Oc2ccccc2)cc1` was “Active”; that for `CCOP(=O)(Oc1ccc(OC)cc1)C(=O)Oc1ccccc1` (configuration not stated) was “Active”.
`O=C(Oc1ccccc1)P(=O)(Oc1ccccc1)Oc1ccccc1`: the Effect result is “Active”.
Take `O=C(Oc1ccc(Cl)c(Cl)c1)P(=O)(O)O`: the Effect result is “Active”.
In the case of `CCOP(=O)(Oc1ccc(Cl)cc1)C(=O)Oc1ccccc1` (configuration not stated), the Effect result was “Active”.
`CCOP(=O)(O)C(=O)Oc1ccc(OC)cc1`: the Effect result was “Active”.
Consider `CCOP(=O)(O)C(=O)O`, for which the Effect result was “Active”.
The same measure, in the same setting: then `O=C(O)P(=O)(O)Oc1ccc2c(c1)CCC2`, with “Active”; and `O=C(O)P(=O)(O)O`, with “Active”.
For `O=C(Oc1ccccc1)P(=O)(O)Oc1ccccc1`, the Effect result is “Active”.
Still for that read-out and setting: then `Cc1ccc(OP(=O)(O)C(=O)Oc2ccccc2)cc1`, with “Active”.
